Measured values: the NIST ThermoML archive (doi:10.1021/je060406c)
“And” between values parts separate entries of the source, which are not always exact repeats. Identical values can stand only once.

Details: Liquid, Transpiration method

O=Cc1ccco1 [2-furaldehyde]
Details | vapor or sublimation pressure [kPa]
276.7 K | 0.0525
281.5 K | 0.0746
285.4 K | 0.1011
288.4 K | 0.1293
290.6 K | 0.1516
293.2 K | 0.182
295.5 K | 0.2088
298.2 K | 0.2589
300.5 K | 0.3002
303.1 K | 0.3652
308.2 K | 0.4911
312.2 K | 0.6213
315.1 K | 0.7411
317.9 K | 0.9108
320.1 K | 1.04
323.4 K | 1.256

OCCc1ccccc1 [2-phenylethanol]
Details | vapor or sublimation pressure
287.8 K | 0.00251 kPa
289.7 K | 0.00285 kPa
292.7 K | 0.00399 kPa
295.1 K | 0.00482 kPa
297.5 K | 0.00626 kPa
302.5 K | 0.00976 kPa
308.2 K | 0.0153 kPa
312.5 K | 0.02276 kPa
316.6 K | 0.03091 kPa
317.6 K | 0.03285 kPa
322.7 K | 0.05022 kPa and 0.05028 kPa
322.8 K | 0.05055 kPa
327.8 K | 0.06913 kPa
332.8 K | 0.09839 kPa
337.9 K | 0.1395 kPa
342.9 K | 0.2097 kPa
348.1 K | 0.2794 kPa
353.2 K | 0.3777 kPa
358.3 K | 0.5243 kPa
363.3 K | 0.6922 kPa

O=Cc1ccccc1 [benzaldehyde]
Details | vapor or sublimation pressure [kPa]
278.4 K | 0.04083
282.3 K | 0.05524
286.3 K | 0.07697
290.3 K | 0.09697
294.3 K | 0.1372
298.4 K | 0.1775
303.2 K | 0.246
308.2 K | 0.3195
313.2 K | 0.4306

O=CCc1ccccc1 [α-tolualdehyde]
Details | vapor or sublimation pressure [kPa]
293.2 K | 0.01683
298.1 K | 0.02456
303.1 K | 0.03724
308.2 K | 0.05436
313.7 K | 0.0801
317.9 K | 0.111
323 K | 0.15
328.1 K | 0.2162
332.1 K | 0.2883
338 K | 0.4029
343 K | 0.5498
